Here are results for 26 compounds from patent US8124788B2, “Spirocyclic cyclohexane compounds with analgesic activity” (Gruenenthal GmbH, priority 2006, dated 2012).

T1 sequence (P35372 whole entry): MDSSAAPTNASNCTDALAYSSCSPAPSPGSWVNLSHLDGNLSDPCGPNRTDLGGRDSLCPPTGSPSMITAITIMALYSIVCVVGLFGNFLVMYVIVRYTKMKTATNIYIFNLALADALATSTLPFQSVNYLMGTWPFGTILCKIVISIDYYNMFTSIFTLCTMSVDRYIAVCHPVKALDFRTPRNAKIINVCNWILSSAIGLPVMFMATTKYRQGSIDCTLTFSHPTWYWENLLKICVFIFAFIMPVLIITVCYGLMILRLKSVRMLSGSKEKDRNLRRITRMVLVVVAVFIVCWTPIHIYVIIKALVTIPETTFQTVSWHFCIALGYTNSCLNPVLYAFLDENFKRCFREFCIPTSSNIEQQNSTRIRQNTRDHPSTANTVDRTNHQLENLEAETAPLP

This test addresses T1, human μ opiate receptor (Homo sapiens, UniProt P35372).
T1 construct: purchased PerkinElmer Life Sciences, Zaventem, Belgium RB-HOM; host or cells: CHO-K1 cells (recombinant expression)
The test is described as follows: Affinity for the human μ opiate receptor ([3H]-naloxone displacement, CHO-K1 membrane preparation, SPA). It counts as binding. The following applies: compounds prepared via automated synthesis; single measurements at a test concentration of 1 μM. On the procedure: The receptor affinity for the human μ opiate receptor is determined in a homogeneous set-up in microtitre plates. For this purpose, dilution series of the substances to be tested are incubated with a receptor membrane preparation (15-40 μg of protein/250 μl of incubation batch) of CHO-K1 cells which express the human μ opiate receptor (RB-HOM receptor membrane preparation from PerkinElmer Life Sciences, Zaventem, Belgium) in the presence of 1 nmol/l of the radioactive ligand [^3H]-naloxone (NET719, PerkinElmer Life Sciences, Zaventem, Belgium) and 1 mg of WGA-SPA-Beads (wheat germ agglutinin SPA beads from Amersham/Pharmacia, Freiburg, Germany) in a total volume of 250 μl for 90 minutes at room temperature. 50 mmol/l of Tris-HCl supplemented with 0.06% of bovine serum albumin are used as the incubation buffer. 100 μmol/l of naloxone are additionally added for determination of the non-specific binding. After the end of the ninety-minute incubation time, the microtitre plates are centrifuged for 20 minutes at 1,000 g and the radioactivity is measured in a β-counter (Microbeta-Trilum, PerkinElmer Wallac, Freiburg, Germany). The percentage displacement of the radioactive ligand from its binding to the human μ opiate receptor is determined at a concentration of the test substances of 1 μmol/l and stated as the percentage inhibition of the specific binding. Starting from the percentage displacement by various concentrations of the test substances, IC50 inhibitory concentrations which cause a 50 percent displacement of the radioactive ligand are calculated. By conversion by means of the Cheng-Prusoff relationship, Ki values for the test substances are obtained.
On to `CN(C)C(c1ccc(Cl)cc1)C1CCC2(CC1)c1[nH]c3ccccc3c1CCN2C(=O)c1cc2ccccc2s1` (centres unmarked) [Compound 78, 2-(1-benzothien-2-ylcarbonyl)-{1,1-[3-(dimethylamino-(4-chlorophenyl)-methyl)-pentamethylene]-3,4-dihydro-1H-2,9-diazafluorene}], for which the “μ opioid receptor [1 μmol], % inhibition” value is recorded as 11%.

In the case of `CC(=O)N1CCc2c([nH]c3ccccc23)C12CCC(C(c1ccccc1)N(C)C)CC2` (centres unmarked) [Compound 79, 2-acetyl-{1,1-[3-(dimethylamino-phenylmethyl) -pentamethylene]-3,4-dihydro-1H-2,9-diazafluorene}], the “μ opioid receptor [1 μmol], % inhibition” value is reported as 4%.

Consider `CN(C)C(c1ccccc1)C1CCC2(CC1)c1[nH]c3ccccc3c1CCN2C(=O)C=Cc1ccccc1` (centres unmarked) [Compound 80, 1-{1,1-[3-(dimethylamino-phenylmethyl)-pentamethylene]-3,4-dihydro-1H-2,9-diazafluoren-2-yl}-3-phenylprop-2-en-1-one], for which the “μ opioid receptor [1 μmol], % inhibition” value came out at 41%.

Turning to `COCC(=O)N1CCc2c([nH]c3ccccc23)C12CCC(C(c1ccccc1)N(C)C)CC2` (centres unmarked) [Compound 81, 2-(methoxyacetyl)-{1,1-[3-(dimethylamino-phenylmethyl) -pentamethylene]-3,4-dihydro-1H-2,9-diazafluorene}], the “μ opioid receptor [1 μmol], % inhibition” value worked out at 0%.

Take `CN(C)C(c1ccccc1)C1CCC2(CC1)c1[nH]c3ccccc3c1CCN2C(=O)Cc1cccs1` (centres unmarked) [Compound 82, 2-(2-thienylacetyl)-{1,1-[3-(dimethylamino-phenylmethyl)-pentamethylene]-3,4-dihydro-1H-2,9-diazafluorene}]: the “μ opioid receptor [1 μmol], % inhibition” value was found to be 31%.

As to `CN(C)C(c1ccccc1)C1CCC2(CC1)c1[nH]c3ccccc3c1CCN2C(=O)COCc1ccccc1` (centres unmarked) [Compound 83, 2-(benzyloxyacetyl)-{1,1-[3-(dimethylamino-phenylmethyl) -pentamethylene]-3,4-dihydro-1H-2,9-diazafluorene}], the “μ opioid receptor [1 μmol], % inhibition” value is on record as 50%.

With `CC(=O)N1CCc2c([nH]c3ccccc23)C12CCC(C(c1ccc(F)cc1)N(C)C)CC2` (centres unmarked) [Compound 84, acetyl-{1,1-[3-(dimethylamino-(4-fluorophenyl)methyl) -pentamethylene]-3,4-dihydro-1H-2,9-diazafluorene}], the “μ opioid receptor [1 μmol], % inhibition” value came to 41%.

For the compound `CN(C)C(c1ccc(F)cc1)C1CCC2(CC1)c1[nH]c3ccccc3c1CCN2C(=O)CCC1CCCC1` (centres unmarked) [Compound 85, 2-(3-cyclopentylpropanoyl)-{1,1-[3-(dimethylamino-(4-fluorophenyl)methyl)-pentamethylene]-3,4-dihydro-1H-2,9-diazafluorene}], the “μ opioid receptor [1 μmol], % inhibition” value is 50%.

With `CN(C)C(c1ccc(F)cc1)C1CCC2(CC1)c1[nH]c3ccccc3c1CCN2C(=O)C=Cc1ccccc1` (centres unmarked) [Compound 86, 1-{1,1-[3-(dimethylamino-(4-fluorophenyl)methyl) -pentamethylene]-3,4-dihydro-1H-2,9-diazafluoren-2-yl}-3-phenylprop-2-en-1-one], the “μ opioid receptor [1 μmol], % inhibition” value was 12%.

Take `CN(C)C(c1ccc(F)cc1)C1CCC2(CC1)c1[nH]c3ccccc3c1CCN2C(=O)COCc1ccccc1` (centres unmarked) [Compound 88, 2-(benzyloxyacetyl)-{1,1-[3-(dimethylamino-(4-fluorophenyl)methyl)-pentamethylene]-3,4-dihydro-1H-2,9-diazafluorene}]: the “μ opioid receptor [1 μmol], % inhibition” value is given as 11%.

Regarding `CC(=O)N1CCc2c([nH]c3ccccc23)C12CCC(C(c1cccc(F)c1)N(C)C)CC2` (centres unmarked) [Compound 89, acetyl-{1,1-[3-(dimethylamino-(3-fluorophenyl)methyl) -pentamethylene]-3,4-dihydro-1H-2,9-diazafluorene}], the “μ opioid receptor [1 μmol], % inhibition” value is recorded as 10%.

Turning to `CN(C)C(c1cccc(F)c1)C1CCC2(CC1)c1[nH]c3ccccc3c1CCN2C(=O)C1CC1` (centres unmarked) [Compound 91, 2-(cyclopropylcarbonyl)-{1,1-[3-(dimethylamino-(3-fluorophenyl)methyl)-pentamethylene]-3,4-dihydro-1H-2,9-diazafluorene}], the “μ opioid receptor [1 μmol], % inhibition” value turned out to be 25%.

As for `COCC(=O)N1CCc2c([nH]c3ccccc23)C12CCC(C(c1cccc(F)c1)N(C)C)CC2` (centres unmarked) [Compound 92, 2-(methoxyacetyl)-{1,1-[3-(dimethylamino-(3-fluorophenyl)methyl)-pentamethylene]-3,4-dihydro-1H-2,9-diazafluorene}], the “μ opioid receptor [1 μmol], % inhibition” value is recorded as 22%.

For `CN(C)C(c1cccc(F)c1)C1CCC2(CC1)c1[nH]c3ccccc3c1CCN2C(=O)Cc1cccs1` (centres unmarked) [Compound 93, 2-(2-thienylacetyl)-{1,1-[3-(dimethylamino-(3-fluorophenyl)methyl)-pentamethylene]-3,4-dihydro-1H-2,9-diazafluorene}], the “μ opioid receptor [1 μmol], % inhibition” value worked out at 19%.

`CN(C)C(c1cccc(F)c1)C1CCC2(CC1)c1[nH]c3ccccc3c1CCN2C(=O)COCc1ccccc1` (centres unmarked) [Compound 94, 2-(benzyloxyacetyl)-{1,1-[3-(dimethylamino-(3-fluorophenyl)methyl)-pentamethylene]-3,4-dihydro-1H-2,9-diazafluorene}]: the “μ opioid receptor [1 μmol], % inhibition” value was determined as 32%.

`CN(C)C(c1ccc(Cl)cc1)C1CCC2(CC1)c1[nH]c3ccccc3c1CCN2C(=O)CCC1CCCC1` (centres unmarked) [Compound 95, 2-(3-cyclopentylpropanoyl)-{1,1-[3-(dimethylamino-(4-chlorophenyl)-methyl)-pentamethylene]-3,4-dihydro-1H-2,9-diazafluorene}]: the “μ opioid receptor [1 μmol], % inhibition” value was determined as 18%.

Consider `CN(C)C(c1ccc(Cl)cc1)C1CCC2(CC1)c1[nH]c3ccccc3c1CCN2C(=O)C1CC1` (centres unmarked) [Compound 96, 2-(cyclopropylcarbonyl)-{1,1-[3-(dimethylamino-(4-chlorophenyl)methyl)-pentamethylene]-3,4-dihydro-1H-2,9-diazafluorene}], for which the “μ opioid receptor [1 μmol], % inhibition” value is recorded as 18%.

For the compound `COCC(=O)N1CCc2c([nH]c3ccccc23)C12CCC(C(c1ccc(Cl)cc1)N(C)C)CC2` (centres unmarked) [Compound 97, 2-(methoxyacetyl)-{1,1-[3-(dimethylamino-(4-chlorophenyl)methyl)-pentamethylene]-3,4-dihydro-1H-2,9-diazafluorene}], the “μ opioid receptor [1 μmol], % inhibition” value is recorded as 20%.

For `CN(C)C(c1ccc(Cl)cc1)C1CCC2(CC1)c1[nH]c3ccccc3c1CCN2C(=O)Cc1cccs1` (centres unmarked) [Compound 98, 2-(2-thienylacetyl)-{1,1-[3-(dimethylamino-(4-chlorophenyl)methyl)-pentamethylene]-3,4-dihydro-1H-2,9-diazafluorene}], the “μ opioid receptor [1 μmol], % inhibition” value is reported as 21%.

Take `CN(C)C(c1ccc(Cl)cc1)C1CCC2(CC1)c1[nH]c3ccccc3c1CCN2C(=O)COCc1ccccc1` (centres unmarked) [Compound 99, 2-(benzyloxyacetyl)-{1,1-[3-(dimethylamino-(4-chlorophenyl)methyl)-pentamethylene]-3,4-dihydro-1H-2,9-diazafluorene}]: the “μ opioid receptor [1 μmol], % inhibition” value is given as 35%.

With `CCCCC(CC)C(=O)N1CCc2c([nH]c3ccccc23)C12CCC(C(c1ccccc1)N(C)C)CC2` (centres unmarked) [Compound 100, 2-(2-ethylhexanoyl)-{1,1-[3-(dimethylamino-phenylmethyl)-pentamethylene]-3,4-dihydro-1H-2,9-diazafluorene}], the “μ opioid receptor [1 μmol], % inhibition” value is on record as 65%.

As for `CC(C)C(=O)N1CCc2c([nH]c3ccccc23)C12CCC(C(c1ccccc1)N(C)C)CC2` (centres unmarked) [Compound 101, 2-isobutyryl-{1,1-[3-(dimethylamino-phenylmethyl) -pentamethylene]-3,4-dihydro-1H-2,9-diazafluorene}], the “μ opioid receptor [1 μmol], % inhibition” value turned out to be 74%.

In the case of `CCC(=O)N1CCc2c([nH]c3ccccc23)C12CCC(C(c1ccccc1)N(C)C)CC2` (centres unmarked) [Compound 102, 2-propionyl-{1,1-[3-(dimethylamino-phenylmethyl) -pentamethylene]-3,4-dihydro-1H-2,9-diazafluorene}], the “μ opioid receptor [1 μmol], % inhibition” value stood at 55%.

As to `CN(C)C(c1ccccc1)C1CCC2(CC1)c1[nH]c3ccccc3c1CCN2C(=O)c1csc2ccccc12` (centres unmarked) [Compound 103, 2-(1-benzothien-3-ylcarbonyl)-{1,1-[3-(dimethylamino-phenylmethyl)-pentamethylene]-3,4-dihydro-1H-2,9-diazafluorene}], the “μ opioid receptor [1 μmol], % inhibition” value stood at 13%.

Turning to `CN(C)C(c1ccccc1)C1CCC2(CC1)c1[nH]c3ccccc3c1CCN2C(=O)Cc1ccc(F)cc1` (centres unmarked) [Compound 104, 2-[(4-fluorophenyl)acetyl]-{1,1-[3-(dimethylamino-phenylmethyl)-pentamethylene]-3,4-dihydro-1H-2,9-diazafluorene}], the “μ opioid receptor [1 μmol], % inhibition” value was 39%.

Turning to `CN(C)C(c1ccc(F)cc1)C1CCC2(CC1)c1[nH]c3ccccc3c1CCN2C(=O)C1CCCC1` (centres unmarked) [Compound 109, 2-cyclopentylcarbonyl-{1,1-[3-(dimethylamino-(4-fluorophenyl)methyl)-pentamethylene]-3,4-dihydro-1H-2,9-diazafluorene}], the “μ opioid receptor [1 μmol], % inhibition” value was determined as 21%.
